Experiments:
[1] = test system: SARS-CoV-2; experiment: Individual curative trials in hospitalized COVID-19 patients: viral load by PCR; type: in vivo, human; details: daily less than 20 mg B-OT per 70 kg body weight over 7 days
[2] = test system: interleukin-6 (IL-6); experiment: Individual curative trials in hospitalized COVID-19 patients: interleukin-6 level; type: in vivo, human
[3] = test system: C-reactive protein (CRP); experiment: Individual curative trials in hospitalized COVID-19 patients: C-reactive protein level; type: in vivo, human; parameters: unit not given here
[4] = test system: human cytomegalovirus (HCMV); experiment: HCMV-EYFP replication in human embryonic lung fibroblasts (HEL), fluorescence-based antiviral assay; type: cell-based; details: HCMV-EYFP-infected HEL cells, 48 h incubation; read-out: 50% inhibitory concentration (IC50), EYFP emission reduced by half
Description: Furthermore, the sensitivity of HCMV replication to B-OT in human mammalian cells was investigated. For this purpose, experiments were performed as described in the work of Dal Pozzo et al. 2008 with B-OT: Human embryonic lung fibroblasts (HEL) were infected with recombinant HCMV EYFP viruses additionally encoding enhanced yellow fluorescent protein (EYFP) (Dal Pozzo F, et al., 2008). As a measure of viral replication after infection with HCMV-EYFP, the emission of the EYFP protein was measured (excitation wavelength: 485 nm/emission: 530 nm). The constant and low cell-associated background emission measured in an automated manner was subtracted from the fluorescence emission value. To test the antiviral effect of B-OT, HCMV-EYFP-infected cells were incubated for 48 h with different B-OT concentrations (0 to 20 mM B-OT). Dose-dependent inhibition of fluorescence (as a measure of viral replication) was evident. The required compound concentration that reduced EYFP emission by half compared with untreated controls (0 mM B-OT) was defined as the 50% inhibitory concentration (IC50) in the fluorescence-based antiviral assay. The IC50 determined here was 0.5 mM B-OT.

[5] = In vivo pharmacokinetics: blood-brain barrier penetration; details: in vivo pharmacokinetics data
Excerpt: A preferred inhibitory thiamine analog is the substance benfo-oxythiamine (B-OT). B-OT is a precursor (“pro-pharmacon”, “prodrug”) of oxythiamine, can be applied orally and releases oxythiamine shortly after its uptake into the mammalian organism. Via the bloodstream, B-OT can reach all cells in all parts of the body.

[6] = test system: SARS-CoV-2; type: cell-based; details: 25 μM resveratrol for 48 h, Caco-2 cells
[7] = test system: TKTL1 mRNA; type: cell-based, human; details: different resveratrol concentrations, 24 h
[8] = test system: HeLa cells; details: cited from earlier work
[9] = test system: TKTL1 promoter; parameters: dose or concentration left out as unconfirmed; details: HeLa cells, resveratrol for 48 h; cited from earlier work
[10] = test system: SARS-CoV-2 infected Caco-2 cells; details: human
[11] = daily less than 20 mg B-OT per 70 kg, after 7 days
[12] = hospitalized COVID-19 patients, start of therapy

For `C/C(=C(\CCOP(=O)(O)O)SC(=O)c1ccccc1)N(C=O)Cc1cnc(C)[nH]c1=O` [B-OT, benfo-oxythiamine], the “viral load as detected by PCR” value [1] was “significant reduction in viral load”, the “average IL-6 level under 7-day B-OT therapy” value [2, 11] was 5 pg/mL and the “average IL-6 level before B-OT therapy” value [2, 12] was 63 pg/mL. The “average CRP level under 7-day B-OT therapy” value [3, 11] was 5, the “average CRP level before B-OT therapy” value [3, 12] was 77 and the IC50 [4] was 500 µM.
In the case of `Cc1ncc(C[n+]2csc(CCO)c2C)c(=O)[nH]1` [oxythiamine], the blood-brain barrier penetration [5] is reported as “can penetrate the blood-brain barrier”.
In the case of `Oc1ccc(C=Cc2cc(O)cc(O)c2)cc1` [resveratrol], the “decrease of replication ability of SARS-CoV-2 viruses compared to the control” value [6] is given as 68%, the “reduction of TKTL1 mRNA” value [7] is given as “the higher the concentration the stronger the reduction” and the “viability of HeLa cells” value [8] is given as “significant decrease in the viability of HeLa cells”. For the same compound, the “reduction in TKTL1 promoter activity compared to untreated cells” value [9] was 75% and the “viability of Caco-2 cells” value [10] was 93%.
